Series [1] has as its system root-knot nematodes (Meloidogyne sp.). As to the kind of experiment: Soil treatment test against root-knot nematodes on tomato plants (degree of root-knot). Format: in vivo. Also on record: key: -: No settlement; - to +: Not more than 10% as compared with untreated plot; +: 10% - 40% as compared with untreated plot; ++: 40% - 80% as compared with untreated plot; +++: The same as or more than untreated plot. The conditions noted are these: observed three weeks after planting. On the procedure:
The emulsifiable concentrate of each test compound formulated according to Formulation example 1 was diluted with water, and 5 ml of the resulting aqueous dilute liquor was mixed with 600 g of soil contaminated with root-knot nematodes (Meloidogyne sp.) to make the concentration of active ingredient in soil 4 or 1 ppm. The soil was placed in a polyethylene cup of 12 cm in diameter and 8 cm in height, and three tomato plants of 3 to 4 leaf stage were planted.

The test system of series [2] is southern corn rootworm (Diabrotica undecimpunctata howardi BABER). The series can be described thus: Soil treatment test against southern corn rootworm larvae (mortality). In kind it is in vivo. The conditions noted are these: 48 h, 1 ppm active ingredient in soil, third instar larvae, two days after liberation. The procedure: The emulsifiable concentrate of each test compound formulated according to Formulation example 1 was diluted with water, and 5 ml of the resulting aqueous dilute liquor was mixed with 50 g of soil to make the concentration of active ingredient in soil 1 ppm. The soil was then placed in a polyethylene cup of 5.6 cm in diameter and 5.8 cm high, and two pieces of corn having roots of 2 to 3 cm long were planted. At the same time, ten third instar larvae of southern corn rootworm (Diabrotica undecimpunctata howardi BABER) were liberated in the cup. Two days after liberation, the number of the dead and alive larvae was counted to obtain mortality (%).

The nature of series [3]: Acute oral toxicity in mouse (mortality). The conditions noted are these: in vivo; oral (stomach sound), 100 mg/kg, ICR mouse, observed for 7 days, 5 head per group; read-out: Mortality (%) at the dose of 100 mg/kg. The procedure: After fasting of about 24 hours, ICR series mouse was weighed by an electronic balance. A stomack sound for mouse was attached to a syringe filled with test solution, the syringe end was slid to innermost of the mouse's throat to insert it to the stomack, and a definite amount of the test solution was injected. 4 Hours after the administration, a bait and water were given to the mouse for 7 days to observe a mortality (5 head per group).

Series [4] has as its system carmine spider mite (Tetranychus cinnabarinus). As to the kind of experiment: Spray and soil drench test against carmine spider mite on kidney bean (degree of damage). Also on record: key: -: Little damage is observed.; +: Slight damage is observed.; ++: Same damage as in the untreated plot is observed. Conditions: 500 ppm spray plus soil drench, examined after 8 days. In kind it is in vivo. The procedure:
Female adults of carmine spider mite (Tetranychus cinnabarinus) were made parasitic on the leaves of potted kidney bean in a primary leaf stage, at a rate of 10 adults per leaf, which had elapsed seven days after sowing, and stored in a constant-temperature room kept at 25°C. After six days, 15 ml of a dilute solution, previously prepared by diluting the emulsifiable concentrate of the following test compounds obtained according to Formulation example 1 with water so that the active ingredient concentration was 500 ppm, was sprayed thereon by means of a turn table. At the same time, soil drench was carried out with 2 ml of the dilute solution. After 8 days, the degree of damage of each kidney bean by mites was examined.
The degree of damage was classified into three stages, -, + and ++. - : Little damage is observed. + : Slight damage is observed. ++ : Same damage as in the untreated plot is observed.

Where [5] appears, read: concentration in the soil 1 ppm.
Setting [6] is: concentration in the soil 4 ppm.

As for `CCOP(=O)(Oc1ccccc1)SC(C)C` (stereo not drawn) [(B)], the Extent of settlement result was “+++” in series [1] (setting [5]) and “+ (10% - 40% as compared with untreated plot)” in series [1] (setting [6]). Besides, in series [2], the mortality at 1 ppm was found to be 0%. Moreover, the mortality at 168 h in series [3] was 100%.

For `Cc1cc(Cl)ccc1/N=C/N(C)C` [Chlorodimeform], in series [4], the Degree of damage entry is given as “+”.

As to `CCOP(=O)(Oc1ccccc1)SC(C)CC` (stereo not drawn) [(C)], the Extent of settlement result is “+++” in series [1] (setting [5]) and “- to + (Not more than 10% as compared with untreated plot)” in series [1] (setting [6]). Further, the mortality at 168 h in series [3] worked out at 100%.

Regarding `CCOP(=O)(Oc1ccccc1)SC(C)(C)C` (stereo not drawn) [Present compound, S-tert-butyl O-ethyl O-phenyl phosphorothiolate], the values for the Extent of settlement entry in series [1] (setting [5]) and in series [1] (setting [6]) were “- to + (Not more than 10% as compared with untreated plot)” and “-”, respectively. In addition, in series [2], the mortality at 1 ppm came to 100%. In series [4], the Degree of damage entry was “-”. The mortality at 168 h in series [3] turned out to be 0%.

With `CCCSP(=O)(OCC)Oc1ccccc1` (stereo not drawn) [(A)], in series [2], the mortality at 1 ppm came out at 70%. In addition, the mortality at 168 h in series [3] was found to be 100%.

(Values after patent EP0278661A1, “A thiophosphoric acid ester as an insecticide, nematocide and acaricide” (priority 1987, dated 1988).)
